From patent publication US20240009331A1, “UROKINASE PLASMINOGEN ACTIVATOR RECEPTOR TARGETED RADIOLABELED PEPTIDE CONJUGATES” (CURASIGHT A/S, priority 2020, published 2024)

Molecular target: uPAR H47C-N259C
Test: SPR inhibition of uPAR binding to immobilized uPA (uPAR H47C-N259C)
Design: species or system human
Details: inhibition of uPAR binding to immobilized prouPA S356A
Procedure: Covalent immobilization of purified human prouPA^S356A was accomplished by injecting 12.5 μg/ml protein dissolved in 10 mM sodium acetate (pH 5.0) over a CM5 chip that had been pre-activated with NHS/EDC (N-ethyl-N′[3-[…])propyl]-carbodiimide), aiming at a surface density of >5000 resonance units (RU) corresponding to 100 fmols/mm^2. After coupling the sensor-chip was deactivated with 1 M ethanolamine. Binding of purified human uPAR as analyte was measured from 4 nM to 0.25 nM at using 10 mM HEPES, 150 mM NaCl, 3 mM EDTA (pH 7.4) containing (v/v) surfactant P20 as running buffer at a flow rate of […]. In between cycles the sensor-chip was regenerated by two consecutive 10-μl injections of 0.1 M acetic acid/HCI (pH 2.5) in 0.5 M NaCl. The inhibition of 3-fold dilutions of the compounds in question was measured for 4 nM uPAR with identical running conditions. All experiments were performed on a BiacoreT200 instrument.
For each inhibition peptide inhibition profile of uPAR binding to immobilized uPA there has been run a preceding standard curve and all calculations are based on the that standard curve.

- IC50: 4.5 ± 1.5 µM
Structure (SMILES): CC(C)C[C@H](NC(=O)[C@H](Cc1ccc(O)cc1)NC(=O)[C@@H](CCCNC(=N)N)NC(=O)[C@@H](CO)NC(=O)[C@H](Cc1ccccc1)NC(=O)[C@H](CC1CCCCC1)NC(=O)[C@@H](N)CC(=O)O)C(=O)N[C@@H](Cc1c[nH]c2ccccc12)C(=O)N[C@@H](CO)C(=O)O [AE105, DChaFsrYLWS-OH]
